Data published in CN108290841A, “具有荧光性的类视黄醇x受体结合性分子及其用途” (Okayama University NUC, priority 2015, dated 2017).
pKi: −log10 of the molar value. Blank lines part the entries; values can stand above or below the compound they belong to.

Experiments:
[1] = biological target: T1, full-length RXRα protein [全长RXRα蛋白质] (Homo sapiens, UniProt P19793); assay: Combined assay: RXR activation by fluorescence polarization of fluorescein-PGC1a coactivator peptide (Example 16); format: biochemical; conditions: test compound 10 μM, full-length RXRα 3 μM, compound 10 3 μM, fluorescein-PGC1a 30 nM
T1 construct: 全长RXRα蛋白质使用3μM
T1 sequence (P19793 1-462): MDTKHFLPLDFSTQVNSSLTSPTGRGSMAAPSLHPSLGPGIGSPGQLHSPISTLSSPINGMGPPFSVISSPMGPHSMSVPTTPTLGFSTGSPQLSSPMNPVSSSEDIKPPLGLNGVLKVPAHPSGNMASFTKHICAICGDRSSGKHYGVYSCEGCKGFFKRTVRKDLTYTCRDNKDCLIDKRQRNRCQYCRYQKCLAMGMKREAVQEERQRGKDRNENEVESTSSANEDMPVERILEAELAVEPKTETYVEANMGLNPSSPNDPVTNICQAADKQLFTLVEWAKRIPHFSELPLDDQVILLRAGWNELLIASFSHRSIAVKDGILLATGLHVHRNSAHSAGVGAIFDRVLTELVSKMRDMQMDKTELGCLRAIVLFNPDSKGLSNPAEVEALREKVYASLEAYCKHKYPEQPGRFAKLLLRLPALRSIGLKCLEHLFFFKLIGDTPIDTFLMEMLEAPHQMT

[2] = biological target: T2, RXRα protein (ligand binding domain (LBD)) [RXRα蛋白质(配体结合域(LBD))] (Homo sapiens, UniProt P19793); assay: RXR binding of RXR ligands evaluated with compound 10 as fluorescent probe (Example 13); conditions: RXRα-LBD 100 nM, compound 10 100 nM; from EC50 by Cheng-Prusoff equation
T2 construct: 关于RXRα蛋白质(配体结合域(LBD)),将Active Motif社制的物质以100nM使用; purchased Active Motif
T2 sequence (P19793 227-458 limits assumed): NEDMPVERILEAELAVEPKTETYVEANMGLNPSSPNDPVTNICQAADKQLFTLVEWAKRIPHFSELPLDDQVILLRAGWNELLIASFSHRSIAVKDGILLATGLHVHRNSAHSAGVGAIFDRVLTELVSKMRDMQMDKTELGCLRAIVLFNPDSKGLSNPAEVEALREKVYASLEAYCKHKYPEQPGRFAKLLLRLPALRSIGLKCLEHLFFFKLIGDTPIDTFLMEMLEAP

[3] = tested on: retinoid X receptor (RXR) [类视黄醇X受体]; assay: Luciferase reporter gene assay for RXR transcriptional activation (Example 9); format: cell-based; conditions: COS-1 cells; for RXR agonist activity: relative to transcriptional activity with 1 μM bexarotene set to 1
[4] = Blood concentration after oral administration to mice (Example 17); format: in vivo; conditions: mouse (male ICR, 6 weeks)
NFκB = conditions: LPS 1 ng/mL, 24 h; relative to LPS without test compound as 100%
[5] = biological target: T2, RXRα protein (ligand binding domain (LBD)) [RXRα蛋白质(配体结合域(LBD))]; assay: Detection of RXR binding of RXR ligands with compound 44 (Example 15); conditions: test compound 1 μM, compound 44 30 nM, RXRα-LBD 100 nM

SMILES: COc1cc2c(cc1-c1cc3cc(C(=O)O)c(=O)oc3cc1O)C(C)(C)CCC2(C)C [化合物23a]
RXR agonist activity [3]: 确认到RXR激动剂活性

SMILES: Cc1cc2c(cc1-c1cc3cc(C(=O)O)c(=O)oc3cc1O)C(C)(C)CCC2(C)C [化合物10]
concentration at 0.5 h ([4]; in vivo, 30 mg/kg oral, 0.5 h after administration): ~3000 nM
disappearance from blood ([4]; 30 mg/kg oral, 0.5, 1, 3 and 6 h): 时间依赖性地从血液中消失
SEAP activity / inhibitory activity on NFκB transcriptional activity (NFκB): 抑制SEAP活性,显示对于NFκB的抑制活性

SMILES: CCN(c1ccc(C(=O)O)cn1)c1cc(OCC(C)C)c(C(C)C)cc1/C=C/c1ccccc1 [NEt-SB]
change of fluorescence intensity of compound 44 by test compound [5]: 荧光强度减少

SMILES: CCCOc1cc2c(cc1-c1cc3cc(C(=O)O)c(=O)oc3cc1O)C(C)(C)CCC2(C)C [化合物23b]
RXR agonist activity [3]: 确认到RXR激动剂活性

Second part, the compound after the results:

fluorescence polarization of fluorescein-PGC1a [1]: 减少
pKi [2]: 6.97
SMILES: CCCCCCOc1cc2c(cc1N(C)c1ncc(C(=O)O)cn1)C(C)(C)CCC2(C)C [PA452]

pKi [2]: 7.14
SMILES: Cc1cc2c(cc1-n1c(C(F)(F)F)nc3cc(C(=O)O)ccc31)C(C)(C)CCC2(C)C [CBTF-PMN]

RXR antagonist activity ([3]; in the presence of the RXR agonist NEt-TMN (printed for compound 44; others tested similarly)): 确认到RXR拮抗剂活性
SMILES: CCCCCOc1cc2c(cc1-c1cc3cc(C(=O)O)c(=O)oc3cc1O)C(C)(C)CCC2(C)C [化合物23c]

RXR agonist activity [3]: 确认到RXR激动剂活性
SMILES: Cc1cc(OC(C)C)c(C(C)C)cc1-c1cc2cc(C(=O)O)c(=O)oc2cc1O [化合物30]
